# Data taken from US10538561B2, “Peptide for treating inflammatory diseases” (priority 2015, dated 2020).
# Marks after values point to notes of the source that are not given here.
# How the values were obtained:
# [1] = system: Cyclobutane Pyrimidine Dimers (CPD); assay: UVB damage: cyclobutane pyrimidine dimers (ELISA); type: cell-based, human; conditions: HaCaT
# Experimental: Effect on Cyclobutane Pyrimidine Dimers (CPD); Effect on 8-oxo-G formation: Cell line: HaCaT (human keratinocytes); test items: IS 181; concentration range: 0.1-100 μg/ml (Duplicate wells). Method of estimation: Plating of cells; Sera starvation with 0.1% FBS (24 hours); treatment of cells with test items (24 hours); UVB damage (30 mJ/cm2)+Test items addition (24 hours); Cyclobutane pyrimidine dimers (CPD) and 8-oxo-G estimation using ELISA.
# [2] = system: Human endothelial cells (EA.hy 926); assay: Inhibition of endothelial cell migration (wound); type: cell-based; conditions: for % Inhibition of migration with respect to respective 0 h control: EA.hy926, 14 h
# Experimental: Cell line: Human endothelial cells (EA.hy 926); test item: IS 181; treatment regimen: single addition; concentration range: 0.1 μg/ml-1 mg/ml; sera condition: medium containing 10% FBS. […] The cells were then subjected to serum starved with medium containing 1% FBS for 24 hours. 24 hours post serum starvation, the wounds (straight line) were created in the middle of the well using a sterile 200 μl pipette tip. Cells were washed twice using DMEM followed by treatment with different concentrations of IS 181 in DMEM containing 10% FBS. Images of wound were taken at 0 h and 14 h at three points in single well and distance of wound closure was measured using Image J software. End point: image analysis of cell migration of different concentrations of IS 181 treated cells at 0 hour and after 14 hours of treatment. Percentage inhibition in cell migration of different concentrations of IS 181 treated cells were calculated after 14 h of treatment with respect to respective 0 hours (FIG. 13). […] (FIGS. 14A-14B).
# [3] = system: Imiquimod (IMQ) induced psoriasis; assay: Imiquimod (IMQ) induced psoriasis model; type: in vivo, BALB/C mice
# EGFR (ErbB1) = EGFR (ErbB1) (Homo sapiens, UniProt P00533); assay: Biochemical kinase assay EGFR
# Chain of EGFR (ErbB1) (P00533 25-1210): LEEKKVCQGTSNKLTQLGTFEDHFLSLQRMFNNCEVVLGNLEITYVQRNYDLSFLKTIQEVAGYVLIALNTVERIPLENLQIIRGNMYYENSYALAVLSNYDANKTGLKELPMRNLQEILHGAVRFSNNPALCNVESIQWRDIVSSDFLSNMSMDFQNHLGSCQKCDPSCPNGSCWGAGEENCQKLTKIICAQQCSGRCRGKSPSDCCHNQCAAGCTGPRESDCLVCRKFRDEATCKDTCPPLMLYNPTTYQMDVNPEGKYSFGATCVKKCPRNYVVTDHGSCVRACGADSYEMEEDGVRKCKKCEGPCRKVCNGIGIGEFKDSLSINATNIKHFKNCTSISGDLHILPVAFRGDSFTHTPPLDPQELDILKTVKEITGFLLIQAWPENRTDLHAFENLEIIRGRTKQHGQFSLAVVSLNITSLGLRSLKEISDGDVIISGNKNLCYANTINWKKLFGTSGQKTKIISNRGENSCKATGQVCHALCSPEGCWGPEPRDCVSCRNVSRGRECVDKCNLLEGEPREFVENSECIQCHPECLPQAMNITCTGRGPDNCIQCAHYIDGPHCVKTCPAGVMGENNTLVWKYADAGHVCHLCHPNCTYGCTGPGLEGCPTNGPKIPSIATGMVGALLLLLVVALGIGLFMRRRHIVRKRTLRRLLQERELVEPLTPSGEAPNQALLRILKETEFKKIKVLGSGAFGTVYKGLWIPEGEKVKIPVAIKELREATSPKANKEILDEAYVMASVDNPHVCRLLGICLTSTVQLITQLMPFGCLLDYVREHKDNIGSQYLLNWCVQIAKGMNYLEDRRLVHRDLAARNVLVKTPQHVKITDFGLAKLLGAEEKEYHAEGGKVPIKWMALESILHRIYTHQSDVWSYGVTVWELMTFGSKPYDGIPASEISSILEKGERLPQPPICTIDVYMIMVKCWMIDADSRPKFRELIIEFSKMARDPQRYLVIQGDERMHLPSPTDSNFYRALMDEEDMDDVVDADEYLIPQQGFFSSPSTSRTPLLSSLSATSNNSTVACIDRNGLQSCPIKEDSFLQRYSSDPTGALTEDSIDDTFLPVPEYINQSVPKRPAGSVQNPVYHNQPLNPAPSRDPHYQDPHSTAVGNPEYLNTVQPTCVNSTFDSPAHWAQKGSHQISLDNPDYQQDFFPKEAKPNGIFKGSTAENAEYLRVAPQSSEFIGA
# Experimental: Test system: cell free assays; test items: IS181; concentrations tested: 1 ng/ml-5000 μg/ml; Kinases: a) Cell free assays: EGFR (ErbB1); FLT1 (VEGFR1); JAK1; JAK3 MAP2K1 (MEK1); PDGFRA (PDGFR alpha); PRKCA (PKC alpha); b) cell based assay: JAK-STAT.
# IL-23 = IL-23 secretion in LPS+IFN-γ stimulated THP-1; type: cell-based, Human; conditions: THP-1 + LPS + IFN-γ, 24 h
# Experimental: Cell lines: Human monocytic cell line (THP-1); test item: IS181: treatment regimen; single addition—24 hours; concentration range: 10 μg/ml-5000 μg/ml. A) Identification of non-cytotoxic concentrations: THP-1 cells were treated with IS181 for 24 hours; effect on cell viability was assessed by MTT assay; concentrations leading to >75% cell viability were selected for IL-23 assay. […] Positive control: curcumin. […] Since supernatants corresponding to 5 concentrations were to be tested for […], we also tested 1 mg/ml.
# [4] = system: Human Keratinocytes (HaCaT); assay: Annexin-V assay; type: cell-based; conditions: 48 h
# Experimental: Cell lines: Human Keratinocytes (HaCaT); test Item (TI): IS181; Treatment regimen: treated twice (once after 24 hours)-48 hours; concentration range: 100 6 g/ml-5000 6 g/ml. […] (c) cells were treated with IS181 for 24 hours; (d) after 24 hours, cells were again treated with IS181 for 24 hours; (e) after 48 hours of first treatment, cells were stained with Annexin-V reagent and acquired on flow cytometer; (f) fold increase in apoptotic cells (early and late apoptotic) and necrotic cells was calculated with respect to untreated control cells. Positive control: Curcumin. […] (FIG. 4)
# IFN-γ = assay: TNF-α stimulated IFN-γ secretion in HaCaT; type: cell-based, Human; design: IFN-γ Conc (μ/ml): unit not given here; conditions: for IFN-γ % decrease with respect to TNF-α / IFN-γ Conc (μ/ml): HaCaT + TNF-α, 24 h
# Experimental: Effect on pro-inflammatory cytokines against TNF-α/LPS+PMA stimulation: TNF-α; IFN-γ; TARC; TSLP; IL-6; IL-8: Cell lines: Human keratinocytes (HaCaT); test item (TI); IS181; experimental steps: pre-treatment of cells with TI for 2 hours; stimulation with TNF-α: 20 ng/ml; stimulation with LPS+PMA-10 μg/ml LPS+40 ng/ml PMA; supernatant collection for cytokine analysis after 24 hours; concentration range: 0.1 μg/ml-100 μg/ml (duplicate wells); cytokines: TNF-α; IFN-γ; TARC; TSLP; IL-6; IL-8. Method of estimating cytokines: ELISA; positive control: dexamethasone.
# Cell line: HaCaT (Human Keratinocytes); TI Treatment regimen: Pretreatment for 2 h; TI Concentration range: 0.1 μg/ml-100 μg/ml (duplicate wells); TNF-α stimulation: 20 ng/ml; LPS+PMA stimulation: 10 μg/ml LPS+40 ng/ml PMA; Time point for supernatants collection: 24 h; Method of estimation: ELISA; Positive control: Dexamethasone
substance,measurement,setting,value
"H-WVQRVVEKFLK-OH [IS181, H-Trp-Val-Gln-Arg-Val-Val-Glu-Lys-Phe-Leu-Lys-OH]",decrease in CPD,"[1]; UVB 30 mJ/cm2, 10 μg/ml",28%
same,decrease in CPD,"[1]; UVB 30 mJ/cm2, 100 μg/ml",26%
same,inhibition of migration of EA.hy926 cells,[2]; 10 μg/ml-1 mg/ml,17%-54%
same,% Inhibition of migration with respect to respective 0 h control,[2]; 0.1 μg/ml,0%
same,% Inhibition of migration with respect to respective 0 h control,[2]; 1 μg/ml,0%
same,% Inhibition of migration with respect to respective 0 h control,[2]; 10 μg/ml,17%
same,% Inhibition of migration with respect to respective 0 h control,[2]; 50 μg/ml,34%
same,% Inhibition of migration with respect to respective 0 h control,[2]; 100 μg/ml,41%
same,% Inhibition of migration with respect to respective 0 h control,[2]; 1 mg/ml,54%
same,ear thickness (life phase),[3]; 1.2 mg/kg i.m. and i.p,mild reduction in ear thickness
same,spleen weight,[3]; i.p,mild reduction in spleen weight
same,inhibition at 10 µg/mL,EGFR (ErbB1); 10 μg/ml,43%
same,inhibition at 50 µg/mL,"EGFR (ErbB1); cell free, 50 μg/ml",43%
same,inhibition at 100 µg/mL,"EGFR (ErbB1); cell free, 100 μg/ml",-12%
same,inhibition at 250 µg/mL,"EGFR (ErbB1); cell free, 250 μg/ml",-29%
same,inhibition at 500 µg/mL,"EGFR (ErbB1); cell free, 500 μg/ml",-56%
same,inhibition at 1000 µg/mL,"EGFR (ErbB1); cell free, 1000 μg/ml",-87%
same,inhibition at 2000 µg/mL,"EGFR (ErbB1); cell free, 2000 μg/ml",-155%
same,% Inhibition of IL-23 wrt Control (LPS + IFN-γ),IL-23; 10 μg/ml,69.8%
same,Conc. of IL-23,IL-23; 10 μg/ml,25.4 pg/mL
same,% Inhibition of IL-23 wrt Control (LPS + IFN-γ),IL-23; 50 μg/ml,66.3%
same,Conc. of IL-23,IL-23; 50 μg/ml,25.3 pg/mL
same,% Inhibition of IL-23 wrt Control (LPS + IFN-γ),IL-23; 100 μg/ml,72.3%
same,Conc. of IL-23,IL-23; 100 μg/ml,23.3 pg/mL
same,% Inhibition of IL-23 wrt Control (LPS + IFN-γ),IL-23; 500 μg/ml,−10.9%
same,Conc. of IL-23,IL-23; 500 μg/ml,93.3 pg/mL
same,% Inhibition of IL-23 wrt Control (LPS + IFN-γ),IL-23; 1000 μg/ml,39.6%
same,Conc. of IL-23,IL-23; 1000 μg/ml,50.6 pg/mL
same,increase in late apoptotic cells vs untreated,[4]; 2000 μg/ml,2.1 fold
same,increase in necrotic cells vs untreated,[4]; 2000 μg/ml,7.9 fold
same,increase in early apoptotic cells vs untreated,[4]; 5000 μg/ml,2.3 fold
same,increase in late apoptotic cells vs untreated,[4]; 5000 μg/ml,5.3 fold
same,increase in necrotic cells vs untreated,[4]; 5000 μg/ml,4.5 fold
same,IFN-γ secretion downregulated as compared to TNF-α stimulated cells,IFN-γ; 0.1 μg/ml-100,27.1%-40.1%
same,IFN-γ inhibition,IFN-γ; HaCaT,good extent of IFN-γ and TARC inhibition
same,IFN-γ % decrease with respect to TNF-α,IFN-γ; 0.1 μg/ml,35.6%
same,IFN-γ Conc (μ/ml),IFN-γ; 0.1 μg/ml,30.7***
same,IFN-γ % decrease with respect to TNF-α,IFN-γ; 1 μg/ml,36.7%
same,IFN-γ Conc (μ/ml),IFN-γ; 1 μg/ml,30.1***
same,IFN-γ % decrease with respect to TNF-α,IFN-γ; 5 μg/ml,40.1%
same,IFN-γ Conc (μ/ml),IFN-γ; 5 μg/ml,28.6***
same,IFN-γ % decrease with respect to TNF-α,IFN-γ; 10 μg/ml,27.1%
same,IFN-γ Conc (μ/ml),IFN-γ; 10 μg/ml,34.7***
same,IFN-γ % decrease with respect to TNF-α,IFN-γ; 100 μg/ml,32.0%
same,IFN-γ Conc (μ/ml),IFN-γ; 100 μg/ml,32.4***
